# Data as given in patent US4977152A, “Novel tricyclic derivatives which are agonists of cholinergic receptors, and drugs in which they are present” (Societe Anonyme: Sanofi, priority 1986, dated 1990).
# Residue numbers refer to the chain shown, from its start. Counter-ions that a name gives are not always drawn. Like-named read-outs stand apart in the source and are kept apart here.
# How the values were obtained:
# [1] = target: T1, M1 central muscarinic cholinergic receptors (Mus musculus, UniProt P12657); test: Antagonism of rotational behavior induced by intrastriatal injection of pirenzepine in mice; format: in vivo, mice (female, Swiss, CD 1); settings: ip, read-out: Pirenzepine antagonism ED50
# T1 construct: The intrastriatal injection of PZ into mice induces rotational behavior; from tissue; host or cells: right striatum of living female mice (Swiss, CD 1)
# T1 sequence (P12657 1-460): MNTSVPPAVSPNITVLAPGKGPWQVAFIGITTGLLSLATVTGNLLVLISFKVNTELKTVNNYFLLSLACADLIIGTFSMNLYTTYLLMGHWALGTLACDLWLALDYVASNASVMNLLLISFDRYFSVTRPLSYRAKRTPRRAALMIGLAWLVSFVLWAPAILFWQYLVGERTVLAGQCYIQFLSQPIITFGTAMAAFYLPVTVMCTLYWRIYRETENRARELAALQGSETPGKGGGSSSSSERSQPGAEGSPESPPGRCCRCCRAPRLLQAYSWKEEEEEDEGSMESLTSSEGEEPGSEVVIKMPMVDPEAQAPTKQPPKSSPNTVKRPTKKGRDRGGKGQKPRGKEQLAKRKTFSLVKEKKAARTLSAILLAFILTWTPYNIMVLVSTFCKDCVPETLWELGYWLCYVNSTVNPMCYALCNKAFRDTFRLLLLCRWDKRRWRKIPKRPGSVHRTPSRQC
# Procedure: Pirenzepine (PZ) is a specific antagonist of M1 central muscarinic cholinergic receptors. The intrastriatal injection of PZ into mice induces rotational behavior. The antagonism of this behavior by the products according to the invention was studied.
# The products according to the invention are injected intraperitoneally (i.p.) after solubilization in distilled water or suspension in a 5% solution of gum arabic. The control animals receive an injection of the pure solvent under the same conditions.
# The animals used are female mice (Swiss, CD 1, Charles River, France) with a body weight of between 25 and 30 grams.
# Pirenzepine is dissolved in a phosphate buffer; the pH of the solution is 6.
# The products to be studied or their solvents are injected intraperitoneally, in a volume of 0.4 ml per 20 g of body weight, 15 minutes before a direct injection of pirenzepine at a dose of […] into the right striatum of the mouse, according to the method described by p.
# The number of contralateral rotations (rotations in the opposite direction to the side injected) was counted for three 2-minute periods after the injection of pirenzepine: minutes 2 to 4, 8 to 10 and 13 to 15. Each treatment includes 3 to 4 doses and 10 animals per dose. For each treatment, the total number of rotations and the percentage antagonism compared with the control group are calculated.
# [2] = target: T2, M2-type muscarinic cholinergic receptor (Cavia porcellus, UniProt H0VRN8); test: Test for affinity for the M2-type muscarinic cholinergic receptor: displacement of [3H]N-methylscopolamine on smooth muscle of guinea-pig ileum; format: binding; settings: guinea-pig ileum smooth muscle homogenate, 0.3 nM [3H]NMS, 20 min at 30° C., pH 7.5
# T2 construct: on a homogenate of smooth muscle of guinea-pig ileum; from tissue; host or cells: guinea-pig ileum smooth muscle homogenate
# T2 sequence (H0VRN8 1-466): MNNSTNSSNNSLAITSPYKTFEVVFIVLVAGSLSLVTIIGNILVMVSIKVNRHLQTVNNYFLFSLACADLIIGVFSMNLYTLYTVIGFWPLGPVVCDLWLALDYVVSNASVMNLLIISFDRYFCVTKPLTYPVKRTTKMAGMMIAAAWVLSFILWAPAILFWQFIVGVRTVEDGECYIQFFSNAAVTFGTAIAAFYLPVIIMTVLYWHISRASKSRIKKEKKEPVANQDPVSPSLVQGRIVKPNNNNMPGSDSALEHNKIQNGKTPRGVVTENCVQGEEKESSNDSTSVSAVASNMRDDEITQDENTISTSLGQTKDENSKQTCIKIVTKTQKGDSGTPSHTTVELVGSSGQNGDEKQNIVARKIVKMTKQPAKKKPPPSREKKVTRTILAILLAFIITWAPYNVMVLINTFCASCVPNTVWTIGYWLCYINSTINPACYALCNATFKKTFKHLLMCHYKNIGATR
# Text: (§1) The M1 -type receptors are concentrated in certain areas of the brain, such as the hippocampus, the cerebral cortex and the striatum, and also in the sympathetic ganglia. These binding sites can be selectively labeled with [^3 H]pirenzepine ([^3 H]PZ). The M2 -type receptors predominate in the heart and ileum and can be labeled with [^3 H]N-methylscopolamine ([^3 H]NMS). To determine the selectivity of our molecules towards the M1 and M2 sites, we studied their interaction in vitro with [^3 H]PZ and [^3 H]NMS bound with a high affinity to membranes of rat hippocampus and membranes of smooth muscle of guinea-pig ileum, respectively.
# The interaction with M2 -type muscarinic receptors was studied by in vitro measurement, on a homogenate of smooth muscle of guinea-pig ileum, of the displacement of tritiated N-methylscopolamine ([^3 H]NMS) from its specific binding sites. Aliquots (50 μl) of a 0.625% (w/v) homogenate of smooth muscle of guinea-pig ileum in MEPES buffer (20 mM) containing NaCl (100 mM) and MgCl2 (10 mM) (final pH: 7.5) are incubated for 20 min at 30° C. in the presence of [^3 H]NMS ([…]; final concentration: 0.3 nM) and increasing concentrations of products to be tested. The final volume is 1 ml. The reaction is stopped by centrifugation for 5 min at 15,000 × g. The non-specific binding is determined in the presence of 10 μmol/l of atropine sulfate (Ref.: Hammer R., Berrie C. P., Birdsall N. I. M., Burgen A. S. V. and Hulme E. C., Nature, 283, 90-92, 1980; Hulme E. C., Birdsall N.1.M., Burgen A. S. V. and Mettha P., Mol. pharmacol., 14, 737-750, 1978).
# (§2) Table 4 indicates the affinities of the products of the invention for M1 and M2 receptors. The results are expressed as 50% inhibitory concentrations (IC50), i.e. the concentration (in μM) which causes a 50% displacement placement of the tritiated ligand bound to the membrane receptors. The IC50 for displacement of ^3 H-pirenzepine represents the affinity for the M1 receptor; the IC50 for displacement of 3H-NMS represents the affinity for the M2 receptor.
# [3] = target: T3, M1-type muscarinic cholinergic receptor (Rattus norvegicus, UniProt P08482); test: Test for affinity for the M1-type muscarinic cholinergic receptor: displacement of [3H]pirenzepine on rat hippocampus homogenate; format: binding; settings: for IC50: rat hippocampus homogenate, 1 nM [3H]PZ, 2 h at 4° C., pH 7.40; for r = (M2 /M1): ratio of IC50 M2 (3H-NMS, guinea-pig ileum) to IC50 M1 (3H-pirenzepine, rat hippocampus)
# T3 sequence (P08482 1-460): T1 sequence (P12657 1-460) with P309S
# Text: as §1
# The interaction of the molecules with M1 -type muscarinic receptors was studied by in vitro measurement, on a homogenate of rat hippocampus, of the displacement of tritiated pirenzepine ([^3 H]PZ) from its specific binding sites. Aliquots (10 μl) of a 5% (w/v) homogenate of rat hippocampus in an Na2 HPO4 buffer (50 mM, pH 7.40) are incubated for 2 h at 4° C. in the presence of [^3 H]pZ ([…]; final concentration: 1 nM) and increasing concentrations of products to be studied. The final volume is 2 ml. The reaction is stopped by centrifugation for 10 min at 50,000 × g. After decantation and washing of the residues, the bound radioactivity is counted by liquid scintillation. The non-specific binding is determined in the presence of 10 μmol/l of atropine sulfate. The 50% inhibitory concentration (IC50) is determined graphically (Ref.: Watson J. D., Roeskoe W. R. and Yamamura H.1., Life Sci., 31, 2019-2029, 1982).
# as §2
# [4] = mice, i.p. 15 minutes before intrastriatal pirenzepine, 50% reduction in number of rotations
Compound,"ED50 [1, 4] [mg/kg]",IC50 [2] [nM],IC50 [3] [nM],r = (M2 /M1) [3],ED50 [1] [mg/kg]
Cc1cc2c(cc1C)-c1nnc(NCCN3CCCC3)cc1CCC2 [SR 44650 A],3,–,–,–,–
"CCN(CC)CCNc1cc2c(nn1)-c1cc(C)c(C)cc1CCC2.Cl.Cl [SR 44663 A, 3-(2-Diethylaminoethylamino)-9,10-dimethyl-6,7-dihydro-5H-benzocyclohepta[5,6-c]pyridazine dihydrochloride]",–,5000,160,37,1
Cc1cc2c(cc1C)-c1nnc(NCCN(C(C)C)C(C)C)cc1CCC2 [SR 44664 A],3,2000,180,11,–
CN(C)CCNc1cc2c(nn1)-c1cc([N+](=O)[O-])ccc1CCC2 [SR 44681 A],1,9000,260,35,–
c1ccc2c(c1)CCCc1cc(NCCN3CCCCC3)nnc1-2 [SR 44694 A],–,3600,150,24,–
"CCN(CC)CCNc1cc2c(nn1)-c1cc(Cl)c(Cl)cc1CCC2.Cl.Cl [SR 44695 A, 9,10-Dichloro-3-(2-diethylaminoethylamino)-6,7-dihydro-5H-benzocyclohepta[5,6-c]pyridazine dihydrochloride]",–,4500,450,10,–
CN(C)CCNc1cc2c(nn1)-c1cc(Cl)c(Cl)cc1CCC2 [SR 44696 A],–,6500,700,10,–
CC(C)N(CCNc1cc2c(nn1)-c1cc([N+](=O)[O-])ccc1CCC2)C(C)C [SR 44697 A],–,3000,300,10,–
"CCN(CC)CCNc1cc2c(nn1)-c1cc(C)c(C)cc1CCCC2.Cl.Cl [SR 44703 A, 3-(2-Diethylaminoethylamino)-10,11-dimethyl-5,6,7,8-tetrahydrobenzocycloocta[5,6-c]pyridazine dihydrochloride]",–,4000,100,40,–
Clc1cc2c(cc1Cl)-c1nnc(NCCN3CCCCC3)cc1CCC2 [SR 44705 A],–,3000,180,16,–
CCCCN(CCCC)CCNc1cc2c(nn1)-c1cc(C)c(C)cc1CCC2 [SR 44706 A],–,30000,3600,8,–
"Cl.Cl.c1ccc2c(c1)CCCc1cc(NCCN3CCOCC3)nnc1-2 [SR 95639 A, 3-(2-Morpholinoethylamino)-6,7-dihydro-5H-benzocyclohepta[5,6-c]pyridazine dihydrochloride]",–,55000,400,137,5
"O=C1CN(CCNc2cc3c(nn2)-c2ccccc2CCC3)CCO1 [SR 95696 A, 3-Z-(2-Oxomorpholino)ethylamino]-6,7-dihydro-5H-benzocyclohepta[5,6-c]pyridazine hydrochloride]",3,–,–,–,–
"CCN(CC)CCNc1cc2c(nn1)-c1cc(N)ccc1CCC2 [SR 95776 A, 10-Amino-3-(Z-diethylaminoethylamino)-6,7-dihydro-5H-benzocyclohepta[5,6-c]pyridazine dihydrochloride]",–,2000,200,10,–
c1ccc2c(c1)CCCc1cc(NCCCN3CCOCC3)nnc1-2 [SR 95817 A],2,–,–,–,–
"OCCNCCNc1cc2c(nn1)-c1ccccc1CCC2 [SR 95819 A, 3-[2-(2-hydroxyethylamino)ethylamino]-6,7-dihydro-5H-benzocyclohepta[5,6-c]pyridazine]",10,–,–,–,–
"Cc1cc2ccccc2c2nnc(NCCN3CCOCC3)cc12 [SR 96057 A, 5-3-(2-morpholinoethylamino)benzo[h]cinnoline dihydrochloride]",–,43000,3000,14,–
"Cl.Cl.O=[N+]([O-])c1cccc2c1CCCc1cc(NCCN3CCOCC3)nnc1-2 [SR 96100 A, 3-(2-Morpholinoethylamino)-8-nitro-6,7-dihydro-5H-benzocyclohepta[5,6-c]pyridazine dihydrochloride]",–,44000,400,110,–
"Cl.Cl.Fc1ccc2c(c1)CCCc1cc(NCCN3CCOCC3)nnc1-2 [SR 96108 A, 9-Fluoro-3 (2-morpholinoethylamino)-6,7-dihydro-5H-benzocyclohepta[5,6-c]pyridazine dihydrochloride]",–,40000,1000,40,–
